Experimental data: patent US11236106B2, “Cycloalkane-1,3-diamine derivative” (Daiichi Sankyo Company, Limited, priority 2018, dated 2022)
Structures can show the parent of a compound that is named as a salt.

Molecular target: T1, menin and MLL (menin, Flag tagged; biotinylated MLL1 peptide 1-46aa) (Homo sapiens, UniProt O00255)
T1 sequence (O00255 1-610): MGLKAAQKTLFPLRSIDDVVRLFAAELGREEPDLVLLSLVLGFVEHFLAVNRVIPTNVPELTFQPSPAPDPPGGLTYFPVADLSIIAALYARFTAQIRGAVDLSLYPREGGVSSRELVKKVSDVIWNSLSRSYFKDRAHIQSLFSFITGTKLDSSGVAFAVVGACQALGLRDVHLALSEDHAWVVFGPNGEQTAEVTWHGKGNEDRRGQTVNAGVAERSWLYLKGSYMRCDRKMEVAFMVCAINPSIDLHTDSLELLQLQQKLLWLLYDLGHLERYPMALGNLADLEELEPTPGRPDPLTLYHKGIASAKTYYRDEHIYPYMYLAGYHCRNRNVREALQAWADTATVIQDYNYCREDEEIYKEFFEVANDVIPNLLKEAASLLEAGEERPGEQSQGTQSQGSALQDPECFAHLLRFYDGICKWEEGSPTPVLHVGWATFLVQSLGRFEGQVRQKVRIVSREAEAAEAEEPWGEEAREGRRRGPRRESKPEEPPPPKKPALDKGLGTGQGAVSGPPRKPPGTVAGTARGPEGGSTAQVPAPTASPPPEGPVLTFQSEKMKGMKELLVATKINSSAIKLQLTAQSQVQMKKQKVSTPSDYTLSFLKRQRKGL
Test: biochemical
Conditions: not given

Q: With `COc1nc(N(C)[C@H]2C[C@@H](NCc3ccc(-c4cc(OC)c(Oc5ccccc5)nn4)cc3)C[C@H]2O)c2cc(CC(F)(F)F)sc2n1` [Example 114, (1R,2S,4R)-4-({[4-(5-methoxy-6-phenoxypyridazin-3-yl)phenyl]methyl}amino)-2-{[2-methoxy-6-(2,2,2-trifluoroethy)thieno[2,3-d]pyrimidin-4-yl](methyl)amino}cyclopentan-1-ol hydrochloride] as the molecule, how does the IC50 read?
A: Its IC50 is 1.5 nM.

Q: Which IC50 does the source give for `COc1cc(-c2ccc(CN[C@H]3C[C@@H](O)[C@@H](N(C)c4ncnc5sc(CC(F)(F)F)cc45)C3)cc2)nnc1N1CCC1` [Example 105, (1R,2S,4R)-4-[({4-[6-(azetidin-1-yl)-5-methoxypyridazin-3-yl]phenyl}methyl)amino]-2-{methyl[6-(2,2,2-trifluoroethyl)thieno[2,3-d]pyrimidin-4-yl]amino}cyclopentan-1-ol hydrochloride] here?
A: Its IC50 is 8 nM.

Same assay, conditions: IC50, binding inhibitory activity between menin and MLL, AlphaLISA; 1 nM menin, 10 nM biotinylated MLL1 peptide

Q: With `CN(c1ncnc2sc(CC(F)(F)F)cc12)[C@H]1C[C@@H](NCc2ccc(-c3cnc(Cl)c4cc[nH]c34)cc2)C[C@H]1O` [Example 70, (1R,2S,4R)-4-({[4-(4-chloro-1H-pyrrolo[3,2-c]pyridin-7-yl)phenyl]methyl}amino)-2-{methyl[6-(2,2,2-trifluoroethyl)thieno[2,3-d]pyrimidin-4-yl]amino}cyclopentan-1-ol hydrochloride] as the molecule, how does the IC50 read?
A: The IC50 was 3.8 nM.

Q: `COc1cc(-c2ccc(CN[C@H]3C[C@@H](O)[C@@H](N(C)c4ncncc4Oc4ccc(F)cc4C(=O)N(C(C)C)C(C)C)C3)cc2)nnc1OC` [Example 89, 2-[(4-{[(1S,2R,4R)-4({[4-(5,6-dimethoxypyridazin-3-yl)phenyl]methyl}amino)-2-hydroxycyclopentyl](methyl)amino}pyrimidin-5-yl)oxy]-5-fluoro-N,N-di(propan-2-yl)benzamide hydrochloride] was tested. Which IC50 did it give?
A: Its IC50 is 5.6 nM.

Q: `COc1nc(N(C)[C@H]2C[C@@H](NCc3ccc(-c4cnc(S(C)(=O)=O)c(OC)c4)cc3)C[C@H]2O)c2cc(CC(F)(F)F)sc2n1` [Example 94, (1R,2S,4R)-4-[({4-[6-(methanesulfonyl)-5-methoxypyridin-3-yl]phenyl}methyl)amino]-2-{[2-methoxy-6-(2,2,2-trifluoroethyl)thieno[2,3-d]pyrimidin-4-yl](methyl)amino}cyclopentan-1-ol hydrochloride] was tested. Which IC50 did it give?
A: Its IC50 is 2.1 nM.

Q: For `COc1nc(N(C)[C@H]2C[C@@H](NCc3ccc(-c4cnc(CO)c(OC)c4)cc3)C[C@H]2O)c2cc(CC(F)(F)F)sc2n1` [Example 112, (1R,2S,4R)-4-[({4-[6-(hydroxymethyl)-5-methoxypyridin-3-yl]phenyl}methyl)amino]-2-{[2-methoxy-6-(2,2,2-trifluoroethyl)thieno[2,3-d]pyrimidin-4-yl](methyl)amino}cyclopentan-1-ol hydrochloride], which IC50 is on record?
A: The IC50 was 0.8 nM.

Q: How did the IC50 turn out when `CN(c1ncnc2sc(CC(F)(F)F)cc12)[C@@H]1CC[C@H](NCc2ccc(-c3cnc4c(c3)OCCO4)cc2)C1` [Example 63, (1R,3S)-N^3-{[4-(2,3-dihydro[l,4]dioxino[2,3-b]pyridin-7-yl)phenyl]methyl}-N^1-methyl-N^1-[6-(2,2,2-trifluoroethyl)thieno[2,3-d]pyrimidin-4-yl]cyclopentane-1,3-diamine hydrochloride] was run?
A: Its IC50 is 19.9 nM.

Q: `COc1cc(-c2ccc(CN[C@H]3C[C@@H](O)[C@@H](N(C)c4ncnc5sc(CC(F)(F)F)cc45)C3)cc2)nnc1C#N` [Example 99, 6-[4-({[(1R,3R,4S)-3-hydroxy-4-{methyl[6-(2,2,2-trifluoroethyl)thieno[2,3-d]pyrimidin-4-yl]amino}cyclopentyl]amino}methyl)phenyl]-4-methoxypyridazine-3-carbonitrile hydrochloride] was tested. Which IC50 did it give?
A: Its IC50 is 1.1 nM.

Q: With `CN(c1ncnc2sc(CC(F)(F)F)cc12)[C@H]1C[C@@H](NCc2ccc(-c3cncc4ccccc34)cc2)C[C@H]1O` [Example 83, (1R,2S,4R)-4-({[4-(isoquinolin-4-yl)phenyl]methyl}amino)-2-{methyl[6-(2,2,2-trifluoroethyl)thieno[2,3-d]pyrimidin-4-yl]amino}cyclopentan-1-ol hydrochloride] as the molecule, how does the IC50 read?
A: Its IC50 is 4.9 nM.

Same assay, conditions: cell free IC50 (nM), 1 nM menin, 10 nM biotinylated MLL1 peptide, AlphaLISA

Q: For `FC(F)(F)Cc1cc2c(N[C@@H]3CCC[C@H](NCc4ccc(Oc5ccccc5)cc4)C3)ncnc2s1` [Example 41, (1S,3R)-N^1-[(4-phenoxyphenyl)methyl]-N^3-[6-(2,2,2-trifluoroethyl)thieno[2,3-d]pyrimidin-4-yl]cyclohexane-1,3-diamine hydrochloride], which IC50 is on record?
A: Its IC50 is 472 nM.

Q: For `COc1cncc(-c2ccc(CN[C@@H]3C[C@H](Nc4ncnc5sc(CC(F)(F)F)cc45)CC(F)(F)C3)cc2)c1` [Example 52, (1R,3S)-5,5-difluoro-N^1-{[4-(5-methoxypyridin-3-yl)phenyl]methyl}-N^3-[6-(2,2,2-trifluoroethyl)thieno[2,3-d]pyrimidin-4-yl]cyclohexane-l,3-diamine hydrochloride], which IC50 is on record?
A: The IC50 was 612 nM.

Q: With `CN(c1ncnc2sc(CC(F)(F)F)cc12)[C@@H]1CC[C@H](NCc2ccc(N3CCc4ccccc43)cc2)C1` [Example 56, (1R,3S)-N^3-{[4-(2)-3-dihydro-1H-indol-1-yl)phenyl]methyl}-N^1-methyl-N^1-[6-(2,2,2-trifluoroethyl)thieno[2,3-d]pyrimidin-4-yl]cyclopentane-1,3-diamine hydrochloride] as the molecule, how does the IC50 read?
A: Its IC50 is 43.6 nM.

Q: With `CN(c1ncnc2sc(CC(F)(F)F)cc12)[C@@H]1CC[C@H](NCc2ccc(S(=O)(=O)N3CCCCCC3)cc2)C1` [Example 59, (1R,3S)-N^3-{[4-(azepane-1-sulfonyl)phenyl]methyl)-N^1methyl-N^1-[6-(2,2,2-trifluoroethyl)thieno[2,3-d]pyrimidin-4-yl]cyclopentane-1,3-diamine hydrochloride] as the molecule, how does the IC50 read?
A: The IC50 was 33 nM.

Q: For `CC(=O)Nc1ccc(CN[C@H]2CCC[C@@H](Nc3ncnc4sc(CC(F)(F)F)cc34)C2)cc1` [Example 29, N-[4-({[(1S,3R)-3-{[6-(2,2,2-trifluoroethyl)thieno[2,3-d]pyrimidin-4-yl]amino}cyclohexyl]amino}methyl)phenyl]acetamide hydrochloride], which IC50 is on record?
A: Its IC50 is 464 nM.

Q: `CN(c1ncnc2sc(CC(F)(F)F)cc12)[C@@H]1CC[C@H](NCc2ccc(S(=O)(=O)N3CCCC(O)C3)cc2)C1` (mixture of isomers) [Example 57, l-[4-({[(1S,3R)-3-{methyl[6-(2,2,2trifluoroethyl)thieno[2,3-d]pyrimidin-4-yl]amino}cyclopentyl]amino}methyl)benzene-1-sulfonyl]piperidin-3-ol hydrochloride (diastereomer mixture)] was tested. Which IC50 did it give?
A: Its IC50 is 61.2 nM.

Q: With `COc1cncc(-c2ccc(CN[C@H]3CC[C@@H](N(C)c4nc(C)nc5sc(CC(F)(F)F)cc45)C3)cn2)c1` [Example 46, (1R,3S)-N^3-[(5′-methoxy[2,3′-bipyridine]-5-yl)methyl]-N^1-methyl-N^1-[2-methyl-6-(2,2,2-trifluoroethyl)thieno[2,3-d]pyrimidin-4-yl]cyclopentane-1,3-diamine hydrochloride] as the molecule, how does the IC50 read?
A: Its IC50 is 39.4 nM.

Q: With `FC(F)(F)Cc1cc2c(N[C@@H]3CCC[C@H](NCc4ccc(-c5nnc[nH]5)cc4)C3)ncnc2s1` [Example 37, (1S,3R)-N^1-{[4-(4H-1,2,4-triazol-3-yl)phenyl]methyl}-N^3-[6-(2,2,2-trifluoroethyl)thieno[2,3-d]pyrimidin-4-yl]cyclohexane-1,3-diamine hydrochloride] as the molecule, how does the IC50 read?
A: The IC50 was 701 nM.
